The nature of the series: Evaluation of pharmacokinetic parameters for metronidazole following topical administration of 7.5 mg of metronidazole (1 g metronidazole topical lotion) for 4 days to the faces of 8 patients. The format is ADME, organism-based. Details: dose 7.5 mg, route topical. The conditions noted are these: human, in vivo, topical or ocular, dosed compound id 31, dosed compound name METRONIDAZOLE, gender male and female, regimen Twice daily, study dosing duration 4 days, tissue Plasma.

For the compound `Cc1ncc([N+](=O)[O-])n1CCO` [METRONIDAZOLE], the peak concentration (Cmax) (sampling time1 5 days) turned out to be 96 ng/mL. Besides, for the setting “read-out: AUC(0-24)”, the AUC at 96 h came out at 962 ng·h/mL.

Usually Cmax stands for the peak of the concentration-time curve. Broadly, the AUC is concentration integrated over time.

The record behind these values is ChEMBL document CHEMBL3832051, “DailyMed|setid=970a767a-7a65-4cdf-84fe-4dbe0a77b80a | METRONIDAZOLE - metronidazole lotion|Physicians Total Care, Inc”.
